The values below come from patent publication US11091442B2, “Fluorosulfonyl-containing compound, intermediate thereof, preparation method therefor and use thereof” (SHANGHAI INSTITUTE OF ORGANIC CHEMISTRY, CHINESE ACADEMY OF …, priority 2017, dated 2021).

Data set [1] can be described thus: Stability in different humidity environments (sealed plastic bottles, 231 days of observation and testing). In kind it is physicochemical. The note with it: after 231 days. Here is the method:
This embodiment studies the stability of 1-(fluorosulfonyl)-2,3-dimethyl-1H-imidazolium trifluoromethanesulfonate in different humidity environments.
Experimental method: 1-(fluorosulfonyl)-2,3-dimethyl-1H-imidazolium trifluoromethanesulfonate was sampled (4.521 g, 4.298 g, 4.273 g) and placed into three plastic bottles (20 mL), which were then sealed with parafilm membrane. The three plastic bottles were placed on an experimental table (22° C.), in a refrigerator (4° C.) or in a dryer (22° C.).

Data set [2] in a line: Stability in deionized water, 19F-NMR tracking of the S-F signal. In kind it is physicochemical. To be noted: for S-F signal of the solution: deionized water, room temperature. Here is the method:
This embodiment studies the stability of 1-(fluorosulfonyl)-2,3-dimethyl-1H-imidazolium trifluoromethanesulfonate in deionized water
The experimental method: 1-(fluorosulfonyl)-2,3-dimethyl-1H-imidazolium trifluoromethanesulfonate ([…], 0.1 mmol) was dissolved in deionized water (1 mL) at room temperature to prepare a solution, and the pH value of the obtained solution was measured to be pH=1, ^19F-NMR tracked the change of the S—F signal of the solution, and the results are shown in Table 3.

A short description of data set [3]: Thermal stability on a melting point meter. In kind it is physicochemical. The note with it: temperature set at 129-240° C., heating gradient 1.0° C./min. Here is the method:
This embodiment studies the melting range and thermal stability of 1-(fluorosulfonyl)-2,3-dimethyl-1H-imidazolium trifluoromethanesulfonate
Experimental method: On a melting point meter, the temperature was set at 30-70° C. and the heating gradient at 0.5° C./min, the melting range of the substance of the embodiment was measured to be 62.1-64.2° C.: the temperature was set at 129-240° C. and the heating gradient at 1.0° C./min, the substance slowly bubbled at 135.2° C., and then turned from colorless to pale yellow at 176.5° C., turned to yellow at 185.6° C., turned to dark yellow at 189.9° C., and finally turned to black at 199.4° C.

“And” between values parts separate entries of the source, which are not always exact repeats. Identical values can stand only once.

A word on the melting point: it is the temperature of the solid-liquid transition.

Compound `Cc1ccc(C2CCCN2S(=O)(=O)F)cc1` (centres unmarked) gave a melting point of 53 to 57 °C.
On to `O=S(=O)(F)N1CCC(Cc2ccccc2)CC1`, for which the melting point was 54 to 58 °C and 58 to 61 °C and 57 to 61 °C.
The compound `O=S(=O)(F)N1CCC(c2ccccc2)CC1` gave a melting point of 83 to 84 °C.
The same measure, in the same setting: the result for `O=C(NC1CCN(S(=O)(=O)F)CC1)c1ccccc1` reads 205 to 207 °C; that for `COc1cc(C(=O)NC2CCCN(S(=O)(=O)F)C2)cc(OC)c1OC` (centres unmarked), 184 to 186 °C; that for `O=S(=O)(F)N1CCN(S(=O)(=O)F)CC1`, 246 to 248 °C.
`CC(C)c1n(S(=O)(=O)F)cc[n+]1C.O=S(=O)([O-])C(F)(F)F` yielded a melting point of 77 to 80 °C.
For the compound `O=S(=O)(F)NCCc1ccc(O)cc1`, the melting point was in the range of 90 to 92 °C.
Same read-out and setting: the result for `CC(C)(C)OC(=O)[C@H](NS(=O)(=O)F)c1ccccc1` reads 81 to 84 °C; that for `O=S(=O)(F)N[C@@H]1CCC[C@H]1OCc1ccccc1`, 76 to 78 °C; that for `CN1CN(S(=O)(=O)F)c2ccccc21.O=S(=O)(O)C(F)(F)F`, 121 to 125 °C.
As for `O=S(=O)(F)c1ccc(-c2ccc(S(=O)(=O)F)cc2)cc1`, the melting point lay in the range of 95.3 to 96.6 °C.
Same read-out and setting: the result for `COc1cc(/C=C/c2ccc(OS(=O)(=O)F)cc2)cc(OC)c1` reads 80.1 to 81.1 °C; that for `O=C(/C=C/c1ccc(S(=O)(=O)F)cc1)c1ccccc1`, 92.8 to 94.2 °C; that for `CC(=O)Nc1ccc(OS(=O)(=O)F)cc1`, 150.3 to 152 °C.
The same measure, in the same setting: the result for `CC(=O)c1c(OS(=O)(=O)F)ccc2c(C)cc(=O)oc12` reads 163.8 to 165.2 °C.
On the same count and under the same terms, under `O=c1ccc2cc(OS(=O)(=O)F)ccc2o1` stands 85.3 to 87.9 °C.
For `Cc1ccc2c(Cl)cc(Cl)c(OS(=O)(=O)F)c2n1`, the melting point lay in the range of 64.6 to 66.2 °C.
In turn, `O=[N+]([O-])c1ccc(OS(=O)(=O)F)c2ncccc12` yielded a melting point of 86.9 to 87.9 °C.
Consider `COc1cc(C=O)ccc1OS(=O)(=O)F`, for which the melting point is 50.8 to 51.8 °C.
`Cc1n(S(=O)(=O)F)cc[n+]1C.O=S(=O)([O-])C(F)(F)F` [Compound 4, 1-(fluorosulfonyl)-2,3-dimethyl-1H-imidazolium trifluoromethanesulfonate] had a melting point of 58 to 60 °C. Further, in data set [1] (placed in the dryer (22° C.)), the “S-F signal in 19F NMR spectrum decreased by” value was “by 4%”. Besides, in data set [1] (placed in the refrigerator (4° C.)), the “S-F signal in 19F NMR spectrum decreased by” value is recorded as “decreased by 1%”. Also, in data set [1] (placed on the experimental table (22° C.)), the “S-F signal in 19F NMR spectrum decreased by” value is reported as “by 25%”. For the same compound, in data set [2] (36 mg, 0.1 mmol dissolved in deionized water (1 mL) at room temperature), the “pH value of the obtained solution” value was 1. The “S-F signal of the solution” value in data set [2] (standing time 12 min) is on record as 0.77. Further, in data set [2] (standing time 30 min), the “S-F signal of the solution” value worked out at 0.58. The “S-F signal of the solution” value in data set [2] (standing time 58 min) was 0.35. The “S-F signal of the solution” value in data set [2] (standing time 2 h) was 0.11. In data set [2] (standing time 2 h 46 min), the “S-F signal of the solution” value is 0.05. Besides, in data set [3], the “temperature at which the substance slowly bubbled” value worked out at 135.2 °C, the “temperature at which the substance turned from colorless to pale yellow” value was determined as 176.5 °C, the “temperature at which the substance turned to black” value was found to be 199.4 °C and the “temperature at which the substance turned to dark yellow” value was found to be 189.9 °C. Besides, the “temperature at which the substance turned to yellow” value in data set [3] is 185.6 °C.
